In one assay the test system is HCT116 cells. Briefly: Anchorage-independent growth assay (soft agar / Matrigel). The following applies: for effect on anchorage-independent growth: HCT116; for IC50: Homo sapiens, HCT-116, 168 h, HCT116, 3-dimensional growth, 1 week. It counts as cell-based, human. How it is done:
In order to evaluate the effect of the compounds on the capacity of tumor cells to grow without anchorage, HCT116 cells were seeded either in agar or in Matrigel (BD, France). For 3D growth experiment in soft agar in 24-well plates, 5.10^3 HCT116 cells were resuspended in 250 μl of complete medium containing 0.3% soft-agar (Difco) and different concentrations of compound (0.1, 1, 10, 17.5, 25 and 50 μM). Cells were then poured on a solidified layer of medium containing 0.5% of soft-agar plus the compound at the same concentration than in the upper layer. Cells were incubated at 37° C. for 1 week before they were analysed using a phase contrast microscope (Nikon). For 3D growth experiment in Matrigel, 10^4 HCT116 cells were resuspended in 300 μl of complete medium containing 5 mg/ml Matrigel (BD, France) and different concentrations of compound (0.1, 1, 10, 17.5, 25 and 50 μM), and poured in 24-well plates. After solidification at 37° C. for 15 min., complete medium containing the compound was added to each well. Cells were incubated for 1 week before they were collected using Matrisperse (BD, France) according to the manufacturer's instructions. After recovery, alive cells were counted with trypan blue exclusion.

Assay [1] deals with MDA-MB-231 cells. Briefly: Matrigel invasion assay (Boyden chamber). The following applies: for Invasion: MDA-MB-231, Boyden chamber, matrigel. It counts as cell-based, human. The method in brief:
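MDA-MB-231 cells were pretreated overnight with compound (1, 10, 17.5, 25, 50 μM). 10^5 cells in serum-free 0.1% BSA medium with compound were placed on 8 μm membranes coated with Matrigel (125 μg/cm^2), with 10% FBS plus compound below. After 6 h at 37 °C, cells on the filter underside were Diff-Quick stained and counted.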

Another assay relates to Ras. The assay is described as follows: Ras-dependant signaling pathway analysis (reporter system). It counts as cell-based. Further details: key: −: no effect of the compound was observed; +: an effect of the compound was observed. The essentials:
(§1)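 Ras and Rac signalling were measured with reporter systems. For colony formation, NIH3T3 cells were transfected with RasV12 or RacV12 plus neomycin plasmids, then grown 2-3 weeks in 400 μg/ml geneticin with compound at 1, 10, 17.5, 25 or 50 μM. Fuchsin-stained colonies of ≥50 cells were counted.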

The test system of a further assay is Rac. Briefly: Rac-dependant signaling pathway analysis (reporter system). Further details: key: −: no effect of the compound was observed; +: an effect of the compound was observed. It counts as cell-based. Here is the method: The impact of the compounds on Ras and Rac signaling pathways was analysed with two reporter systems described by Imler (Nature 1988) and Lin (Science, 1995) respectively on one hand, and by a colony formation assay in the presence of constitutively activated Ras (RasV12) and Rac (RacV12) on the other hand. For this latter experiment, fifty percent confluent NIH3T3 cells in a 10 cm diameter petri dish were transfected with 0.5 μg pSV2-RasV12 or 0.5 μg pEXV RacV12 plasmids plus 100 ng of pSV2-neomycin plasmid using Lipofectamine-Plus reagent (Invitrogen) according to the manufacturer's instructions. Forty-eight hours later, cells were trypsinised, splitted to ⅓, and incubated in the presence of complete medium supplemented with 400 μg/ml geneticin (Invitrogen) and different doses of compound (1, 10, 17.5, 25 and 50 μM) until emerging resistant clones appear (2-3 weeks). The medium was renewed every 3 days. Colonies with a minimum of 50 cells were counted after staining with Fuschin 2%.

A further assay deals with NIH3T3 cells. Briefly: Colony formation assay with constitutively activated Ras (RasV12) and Rac (RacV12). Further details: key to Colony formation: −: no effect of the compound was observed; +: an effect of the compound was observed. The assay is classed as cell-based, mouse. The method in brief: as §1
The next assay deals with cell architecture. Briefly: Cell architecture modification, phase contrast. The assay is classed as cell-based. Also on record: key: −: no effect of the compound was observed; +: an effect of the compound was observed.
The next assay concerns NIH3T3. The assay is described as follows: Cytoskeleton analysis, actin staining (FITC-phalloidin). The assay is classed as cell-based, mouse. The following applies: for Cell architecture modification actin staining (R: ruffles; FC: focal complexes) NIH3T3: 24 h treatment; for concentration at which specific inhibition of membrane ruffles and increase in the number of stress fibers was observed: NIH3T3, actin staining. The method in brief: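 Subconfluent cells on coverslips were exposed to compound at 1, 10, 17.5, 25 or 50 μM, or to vehicle, for 24 h. They were then formaldehyde-fixed, Triton-permeabilized and blocked. Actin was stained with 0.5 μg/ml FITC-phalloidin for 1 h and imaged by inverted fluorescence microscopy.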

The subject of assay [2] is MDA-MB-231 cells. The assay is described as follows: Migration assay (Boyden chamber, non-coated filters). It counts as cell-based, human. The note with it: for Migration: MDA-MB-231, Boyden chamber. The essentials: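 MDA-MB-231 cells were pretreated overnight with compound (1, 10, 17.5, 25 and 50 μM), then 10^5 cells placed in the upper chamber in serum-free medium with 0.1% BSA plus compound; lower chamber held 10% FBS plus compound as chemoattractant. After 6 hours at 37° C on non-coated filters, migrated underside cells were stained and counted by microscopy.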

Another assay relates to MMP-2. The assay is described as follows: Gelatin zymography. It counts as cell-based, human. The following applies: MDA-MB-231 supernatant. How it is done: (§2) The activity of the metalloproteases MMP-2 and MMP-9 was assayed using gelatinolytic zymography according to Lambert (Surgery 1997). Briefly, MDA-MB-231 cells were incubated overnight in serum-free medium supplemented with ITS liquid supplement (Sigma) with different concentrations of compound (1, 10, 17.5, 25 and 50 μM). Supernatant was collected and concentrated with Ultrafree 30 kDA (Millipore). Equal amount of proteins, as determined by Bradford measurement, were loaded onto a 10% w/v polyacrylamide gel containing 1% gelatin and 0.1% SDS (Novex). After electrophoresis, gels were washed in Novex Zymogram Renaturing buffer for 30 min at room temperature and incubated overnight at 37° C. in Novex Zymogram developing buffer. Gels were stained in Coomassie Brilliant Blue G-250, and the gelatinolytic activity was visualized as a clear band against the blue background of the stained gelatin.

Another assay has as its system MMP-9. The assay is described as follows: Gelatin zymography. It counts as cell-based, human. The following applies: MDA-MB-231 supernatant. How it is done: as §2

Consider `C/C=C/c1oc(CO)cc(=O)c1OCCCCCOc1ccc(Cl)c(Cl)c1CCC` [EH31101, (E)-3-[5-(3,4-Dichloro-2-propylphenyloxy)pentyloxy]-6-(hydroxymethyl)-2-(propen-1-yl)-4H-pyran-4-one], for which, in the assay on HCT116 cells, the “effect on anchorage-independent growth” value was “significant, although less severe, effect” and the IC50 is less than 1000 nM. In the assay on MDA-MB-231 cells [1], the “concentration giving an increase in invasive properties of MDA-MB-231 cells” value turned out to be 10 µM and the Invasion result is “Increase”. Also, in the assay with Ras, the “Small GTPases activities Ras” value is “−”. The “Small GTPases activities Rac” value in the assay on Rac is listed as “−”. Besides, the Colony formation entry in the assay on NIH3T3 cells is on record as “−”. In the assay with cell architecture, the “Cell architecture modification phase contrast” value is given as “+”. In the assay on NIH3T3, the “Cell architecture modification actin staining (R: ruffles; FC: focal complexes) NIH3T3” value is “R-, FC+”; the “concentration at which specific inhibition of membrane ruffles and increase in the number of stress fibers was observed” value turned out to be 50 µM. Further, in the assay with MDA-MB-231 cells [2], the “concentration at which inhibition of serum-induced migration was observed” value was 10 µM and the Migration entry is listed as “no effect”. For the same compound, the “concentration inhibiting MMP-2 in a dose-dependant manner (zymogram gel)” value with MMP-2 was 0.1 µM. In addition, in the assay with MMP-9, the “concentration inhibiting MMP-9 in a dose-dependant manner (zymogram gel)” value stood at 0.1 µM.
Consider `CCCc1c(OCCCCCOc2coc(CO)cc2=O)ccc(Cl)c1Cl` [EH22900, 5-[5-(3,4-Dichloro-2-propylphenyloxy)pentyloxy]-2-(hydroxymethyl)-4H-pyran-4-one], for which, in the assay with HCT116 cells, the “effect on anchorage-independent growth” value is “strongest effect” and the IC50 is less than 1000 nM. Moreover, in the assay with MDA-MB-231 cells [1], the “concentration giving significant inhibition of invasive properties of MDA-MB-231 cells” value was determined as 17.5 µM and the Invasion result is “Decrease”. Also, the “Small GTPases activities Ras” value in the assay on Ras is recorded as “−”. The “Small GTPases activities Rac” value with Rac is “−”. For the same compound, the Colony formation result in the assay on NIH3T3 cells is listed as “+”. Further, the “Ras-dependent neoR clones formation” value in the assay on NIH3T3 cells (NIH3T3 transfected with RasVal12) is “inhibited”. Also, in the assay with cell architecture, the “Cell architecture modification phase contrast” value is given as “+”. Besides, in the assay with NIH3T3, the “Cell architecture modification actin staining (R: ruffles; FC: focal complexes) NIH3T3” value is listed as “R-, FC+”; the “concentration at which specific inhibition of membrane ruffles and increase in the number of stress fibers was observed” value was 10 µM. For the same compound, in the assay on MDA-MB-231 cells [2], the “concentration at which inhibition of serum-induced migration was observed” value is 25 µM and the Migration entry is given as “inhibition”. Further, in the assay on MMP-2, the “concentration inhibiting MMP-2 in a dose-dependant manner (zymogram gel)” value is 5 µM. In addition, the “concentration inhibiting MMP-9 in a dose-dependant manner (zymogram gel)” value in the assay on MMP-9 was 5 µM.

The IC50 is the point on the concentration scale where inhibition reaches its midpoint.

The values above are taken from patent US20050054629A1, “Compounds and methods of treating cell proliferative diseases” (priority 2002, published 2005).
